Test results taken from ChEMBL document CHEMBL1201862, “PubChem BioAssay data set” (2004).
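Exposure lasted 48 hours, with cells grown in 96-well plates and compounds tested at five concentrations. Abbreviation: GI50, concentration required for 50% inhibition of growth.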 Active and inactive are the calls of the source. Cut-off read from the data, not from the text of the source: active = GI50 up to about 1.1 µM and inactive = higher.

Tests used:
Experiment in all cases: NCI-60 cell line screen, 48 h
[1] = test system: SNB-75
[2] = test system: NCI-H460
[3] = test system: UACC-257
[4] = test system: MOLT-4
[5] = test system: SW-620
[6] = test system: HCC 2998
[7] = test system: KM12
[8] = test system: TK-10
[9] = test system: HCT-15
[10] = test system: DU-145
[11] = test system: SK-OV-3
[12] = test system: SF-268
[13] = test system: EKVX
[14] = test system: OVCAR-5
[15] = test system: HOP-62
[16] = test system: HCT-116
[17] = test system: SF-295
[18] = test system: RXF 393
[19] = test system: NCI-H23
[20] = test system: SN12C

## C[N+]1(C)CCCC(C#N)(c2ccccc2)CC1 (stereo unspecified)
[1]
  GI50: > 100 µM (inactive)
[2]
  GI50: > 100 µM (inactive)
[3]
  GI50: > 100 µM (inactive)
[4]
  GI50: > 100 µM (inactive)
[5]
  GI50: > 100 µM (inactive)
[6]
  GI50: > 100 µM (inactive)
[7]
  GI50: > 100 µM (inactive)
[8]
  GI50: > 100 µM (inactive)
[9]
  GI50: > 100 µM
[10]
  GI50: > 100 µM (inactive)
[11]
  GI50: > 100 µM (inactive)
[12]
  GI50: > 100 µM (inactive)
[13]
  GI50: > 100 µM (inactive)
[14]
  GI50: > 100 µM (inactive)
[15]
  GI50: > 100 µM (inactive)
[16]
  GI50: > 100 µM (inactive)
[17]
  GI50: > 100 µM (inactive)
[18]
  GI50: > 100 µM (inactive)
[19]
  GI50: > 100 µM (inactive)

## Cc1ccc(C(=O)Nc2ccc(CP(=O)(O)O)cc2)cc1NC(=O)c1cccc(NC(=O)Nc2cccc(C(=O)Nc3cc(C(=O)Nc4ccc(CP(=O)(O)O)cc4)ccc3C)c2)c1
[1]
  GI50: > 100 µM (inactive)
[2]
  GI50: > 100 µM (inactive)
[3]
  GI50: > 100 µM (inactive)
[5]
  GI50: > 100 µM (inactive)
[6]
  GI50: > 100 µM (inactive)
[7]
  GI50: > 100 µM (inactive)
[8]
  GI50: > 100 µM (inactive)
[20]
  GI50: > 100 µM (inactive)
[9]
  GI50: > 100 µM
[10]
  GI50: > 100 µM (inactive)
[11]
  GI50: > 100 µM (inactive)
[12]
  GI50: > 100 µM (inactive)
[13]
  GI50: > 100 µM (inactive)
[14]
  GI50: > 100 µM (inactive)
[15]
  GI50: > 100 µM (inactive)
[16]
  GI50: > 100 µM (inactive)
[17]
  GI50: > 100 µM (inactive)
[18]
  GI50: > 100 µM (inactive)
[19]
  GI50: > 100 µM (inactive)

## O=C1Nc2ccc([N+](=O)[O-])cc2/C1=N/NC(=S)Nc1ccccc1
[1]
  GI50: 7.57 µM (inactive)
[2]
  GI50: 3.61 µM (inactive)
[3]
  GI50: 12.7 µM (inactive)
[4]
  GI50: 5.98 µM (inactive)
[5]
  GI50: 8.99 µM (inactive)
[6]
  GI50: 3.6 µM (inactive)
[7]
  GI50: 8.41 µM (inactive)
[8]
  GI50: 6.11 µM (inactive)
[20]
  GI50: 5.9 µM (inactive)
[9]
  GI50: 3.03 µM
[10]
  GI50: 11.8 µM (inactive)
[11]
  GI50: 14 µM (inactive)
[13]
  GI50: 1.21 µM (inactive)
[14]
  GI50: 12.2 µM (inactive)
[15]
  GI50: 8.57 µM (inactive)
[16]
  GI50: 4.05 µM (inactive)
[17]
  GI50: 4.34 µM (inactive)
[18]
  GI50: 11.6 µM (inactive)
[19]
  GI50: 9.33 µM (inactive)

## CC(C)=Cc1cc2c(cc1O)CCC1C2CC[C@@]2(C)C1CC[C@@H]2O (stereo partly specified)
[1]
  GI50: 3.56 µM (inactive)
[2]
  GI50: 12 µM (inactive)
[3]
  GI50: 14.9 µM (inactive)
[4]
  GI50: 6.41 µM (inactive)
[5]
  GI50: 8.53 µM (inactive)
[6]
  GI50: 14.1 µM (inactive)
[7]
  GI50: 11.8 µM (inactive)
[8]
  GI50: 3.16 µM (inactive)
[20]
  GI50: 14.7 µM (inactive)
[9]
  GI50: 8.89 µM
[10]
  GI50: 14.3 µM (inactive)
[11]
  GI50: 14.9 µM (inactive)
[12]
  GI50: 16.7 µM (inactive)
[13]
  GI50: 15.6 µM (inactive)
[14]
  GI50: 15.7 µM (inactive)
[16]
  GI50: 10.3 µM (inactive)
[17]
  GI50: 2.26 µM (inactive)
[18]
  GI50: 6.01 µM (inactive)
[19]
  GI50: 15.8 µM (inactive)
